Data taken from patent US20110052551A1, “CARDIAC MYOCYTE MORPHOGENIC COMPOSITIONS AND METHODS OF USE THEREFOR” (priority 2008, published 2011).
“Also recorded” adds a separate entry of the source.

Experiments:
Type in all cases: cell-based, mice
unfractionated BMMNCs [1] = test: qRT-PCR of Wnt11-induced cardiac gene expression with PKC and JNK inhibitors; details: 3 days in Wnt11-CM, BIM 1 μM, SP600125 10 μM
Method: Assessment of mRNA expression by quantitative real-time RT-PCR (qRT-PCR). All qRT-PCR reagents and primers were purchased from Qiagen Inc. (Valencia, Calif., United States of America). Prior to mRNA extraction, cell number was determined and calculated by Trypan blue exclusion. cDNA was generated from freshly isolated (designated as baseline) and cultured unfractionated BMMNCs at days 0, 3, 7, and 21 (see FIG. 9A) using QUANTISCRIPT REVERSE TRANSCRIPTASE™ (Qiagen Inc., Valencia, Calif., United States of America) contained in RT master mix of Cell to cDNA kits according to manufacturer's protocol. […]
To avoid amplification of contaminating DNA, all validated qRT-PCR primers were designed to cross […] sequences within the cDNA to be amplified. Quantitative qRT-PCR analysis was performed in an ABI Prism 7900H sequence detection system (Applied Biosystems, Foster City, Calif.) using QUANTITECT™ SYBR® Green Real Time PCR kits. Each 50 μl qRT-PCR reaction contained 2 μl (approximately 50 ng) of cDNA, 5 μl of 1× primer mix (containing approximately 500 nM sense and anti-sense primers) and 25 μl of 2× QUANTITECT™ SYBR® Green master mix. […]
The PCR product level is calculated from the threshold cycle (Ct). That is, the amplification cycle number at which exponential PCR-generated gene-specific fluorescence is first detected (above a fixed threshold level). […]

[2] = tested on: JNK phosphorylation in BMMNCs; test: Western immunoblotting of Wnt11-induced JNK phosphorylation; details: 1 μM, 3 hours in Wnt11-CM
Method: Assessment of Wnt signaling. To investigate non-canonical signaling pathways, freshly isolated unfractionated BMMNCs were cultured in Wnt11-CM or in empty vector (control) medium in the presence or absence of 1 μM of the PKC inhibitor bisindolylmaleimide I (BIM, Sigma) for 3 hours followed by harvest and assessment of JNK phosphorylation by Western immunoblotting (see below and FIG. 9B). The expression of cardiac-specific gene expression in unfractionated BMMNCs was assessed by qRT-PCR following culture for 3 days in Wnt11-CM and empty vector (control) medium with and without PKC (BIM; 1 μM) and JNK (SP600125; 10 μM; Sigma) inhibitors (see FIG. 9B). Expression of Wnt3a and β-catenin were measured by qRT-PCR to investigate the effect of control, Wnt3a medium, and Wnt11-CM on canonical signaling.
(§1) Western immunoblotting and quantitative ELISA. […] Gel transfer efficiency was recorded carefully by making photocopies of membranes dyed with reversible Ponceau staining; gel retention was determined by Coomassie blue staining. […] Immunoreactive bands were visualized with horseradish peroxidase-conjugated anti-goat and anti-rabbit IgG (Santa Cruz Biotechnology) using an ECL detection kit (New England Nuclear, Billerica, Mass., United States of America), quantified by densitometry, and normalized GAPDH. […]

unfractionated BMMNCs [3] = test: cTnI ELISA in cultured BMMNCs; details: for effect on Wnt11-induced expression of cTnI: 21 days of culture in Wnt11-CM
Method: Assessment of cardiac differentiation. For quantitative assessment of cardiomyocytic differentiation, an average of 2400 cells/plate were counted. Multiple fields from all 4 quarters of the plate were systematically evaluated. The number of cells expressing cardiac-specific intracellular contractile proteins in each field was counted; the total number of cells was calculated based on nuclear staining with DAPI. In addition, cells were concomitantly stained with markers specific for various non-cardiac lineages (skeletal muscle [myogenin]; neural [nestin, GFAP]; myeloid [CD11b, Gr-1]; and others; Zuba-Surma et al., 2006). Cells were counted as positive when they were positive for cardiac-specific contractile proteins and negative for all of these markers. Thus, a rigorous method was employed to assess cardiac differentiation in vitro. The percentage of cells differentiating into cardiomyocytes was calculated as the number of cells positive for proteins divided by the total number of nuclei in the field. These experiments were performed in triplicate. As a confirmatory measure, the expression of cardiac-specific troponin I (cTnI) was determined by ELISA as described hereinbelow following culture in Wnt11-CM with and without the Wnt inhibitor Dickkopf-1 (Dkk-1; see FIG. 9C).
as §1, with “ELISA. Western analysis was performed as described in Guo et al., 1998; Brandon et al., 2000; Li et al., 2003; and Li et al., 2006.” for “ELISA.”, “GAPDH. In all samples, the content of target protein was expressed as a percentage of the controls (untreated), normalized to GAPDH.” for “GAPDH.”

CN(C)CCCn1cc(C2=C(c3c[nH]c4ccccc34)C(=O)NC2=O)c2ccccc21 [BIM, bisindolylmaleimide I]
Wnt11-induced cardiac gene expression (unfractionated BMMNCs [1]): abolished; also recorded: no expression
Wnt11-induced cardiac gene expression (unfractionated BMMNCs [1]; listed as bisindolylmaleimide I): completely abolished
Wnt11-induced JNK phosphorylation [2]: completely blocked

B1: Dkk-1: soluble inhibitor of canonical signaling that blocks Wnt-signaling at the cell surface (protein, UniProt O94907 32-266, looked up)
Dickkopf-related protein 1: TLNSVLNSNAIKNLPPPLGGAAGHPGSAVSAAPGILYPGGNKYQTIDNYQPYPCAEDEECGTDEYCASPTRGGDAGVQICLACRKRRKRCMRHAMCCPGNYCKNGICVSSDQNHFRGEIEETITESFGNDHSTLDGYSRRTTLSSKMYHTKGQEGSVCLRSSDCASGLCCARHFWSKICKPVLKEGQVCTKHRRKGSHGLEIFQRCYCGEGLSCRIQKDHHQASNSSRLHTCQRH
effect on Wnt11-induced expression of cTnI (unfractionated BMMNCs [3]): reduced
effect on Wnt11-induced expression of cTnI (unfractionated BMMNCs [3]; listed as Dickkopf-1): attenuated
effect on cTnI expression by itself (unfractionated BMMNCs [3]; 21 days of culture, without Wnt11-CM): little effect
